In PMC12298827, “Subchronic Toxicities of Four Per- and Polyfluoroalkyl Substances (PFASs) by Oral Exposure in Sprague–Dawley Rats” (Toxics, 2025):

What was measured:
male SD rats = experiment: Single-dose tolerability study, oral gavage; format: in vivo, rat; conditions: single oral dose in corn oil, n = 3/dose
Procedure: Tolerability, 14-day dose-range-finding, and 90-day subchronic toxicity studies were conducted at Inotiv (Gaithersburg, MD, USA), monitored by the Research Triangle Institute (RTI) (Durham, NC, USA) and sponsored and funded by the EPA. Tolerability studies used four PFAS dose levels plus a control, with the high doses not to exceed 1000 mg/kg (subject to solubility in corn oil, dose volume of 5 or 10 mL/kg) and lower doses separated by threefold spacing. The dose levels for PFHI, MHFPK, and CTFPA were […]. The dose levels for PFNAC were 0, 25, 75, 225, and 667 mg/kg. Tolerability was studied using male rats (n = 3 rats/group) that received a single dose by oral gavage. The rats were euthanized at 48 hours post dosing. The data collected were bodyweight (BW) and BW changes (BWCs), feed consumption (FC) and water consumption (WC), cage-side observations, and physical exams; no necropsies were performed.

male and female SD rats = experiment: 14-day dose-range-finding oral gavage study; format: in vivo, rat; conditions: both sexes, all doses
Procedure: Dose-range-finding (14-day) studies were conducted using male and female rats to establish dose levels for 90-day studies and identify potential target organ toxicities. Male and female rats (n = 5 sex/group, a control and three dose groups, corn oil vehicle dose volume of 5 mL/kg) were administered PFASs by oral gavage daily for 14 days and euthanized on study day (SD) 15. The dose levels for PFHI, CTFPA, and MHFPK were 0, 30, 100, and 300 mg/kg-day. The dose levels for PFNAC were 0, 10, 30, and 100 mg/kg-day. The in vivo data collected included BW, BWCs, FC, cage-side observations, and physical exams. Gross necropsies, relative and absolute organ weights, and clinical chemistry data were collected for all the groups. Macroscopic and microscopic pathology examinations were conducted for the control and high-dose groups initially; the other groups were examined if justified by experimental findings. Plasma samples were analyzed ~2 h post dosing on day 1 and at day 15 for the parent PFAS chemical.
Neurotoxicity was evaluated using the functional observational battery (FOB) and measuring locomotor activity (LMA) 2–4 h post dosing on SDs 78–80 and 80–84, respectively. For both the 14- and 90-day studies, an ophthalmologic examination was conducted prior to randomization and near the end of the study, using indirect ophthalmoscopy and slit–lamp biomicroscopy (as needed) after the administration of a mydriatic solution.
Hematology, biochemistry, and coagulation endpoints were measured at the termination of the study. A Siemens Advia 2120i hematology analyzer (Siemens Healthineers, Erlangen, Germany) was used to measure (or calculate) the parameters related to the complete blood count, leukocyte differential count, and reticulocyte count. The hematology parameters are listed and described in Table 2. The prothrombin time […] and activated partial thromboplastin time (APTT) were measured using an Instrumentation Laboratory (Bedford, MA, USA) ACL Elite Pro coagulation analyzer (laser–nephelometric centrifugal method).
At necropsy, the rats were visually examined for external abnormalities and organ weights (absolute and relative to the BW and brain weight), which were recorded (paired organs weighed together). The tissues were preserved in 10% neutral buffered formalin (NBF), except for the ocular tissues, testes, and epididymides, which were preserved in modified Davidson’s fixative and later transferred to 10% NBF. Bone marrow smears were prepared from the femurs, and the slides were air-dried, fixed in methanol, stained, and stored at room temperature for possible future evaluation. The preserved tissues were embedded in paraffin, sectioned, stained with hematoxylin and eosin, and examined by a board-certified veterinary pathologist.

[1] = Stability of dosing formulations in corn oil; format: physicochemical
Description: Based on solubility, corn oil (Welsh, Holme & Clark Inc., Newark, NJ, USA) was used as the vehicle for all four PFASs. Gas chromatography (GC) with flame ionization detection (FID) was used for the analysis of the PFNAC, PFHI, and MHFPK formulations, and a high-performance liquid chromatography (HPLC) method with ultraviolet spectroscopy was used for the CTFPA formulation. The details of the dosing solution analytical conditions are summarized in supplemental Tables S1 and S2. These analytical methods were developed specifically for these subchronic toxicity studies. […] Dosing solutions were prepared and replaced between at least every 29 days and no more than every 39 days.
PFNAC, PFHI, and MHFPK were soluble in corn oil up to 67, 200, and 100 mg/mL, respectively. As solubility in aqueous vehicles was 40 mg/mL or less for all three chemicals, corn oil was chosen as the vehicle. PFNAC was stable at the ambient temperature for 51 days at target concentrations of 0.2 and 10 mg/mL PFHI was stable in corn oil at ambient temperatures and target concentrations of 1 and 80 mg/mL for up to 70 days. MFHPK was stable in corn oil at room temperature for up to 44 days at target concentrations of 5 and 100 mg/mL. CTFPA was soluble in both deionized (DI) water and corn oil at 200 mg/mL when stored refrigerated overnight. […] Thus, corn oil was chosen as the vehicle for CTFPA. The stability of the CTFPA in the corn oil was evaluated for 8, 13, 15, 23, 35, and 42 days stored refrigerated in plastic bottles. CTFPA at 40 mg/mL was stable for up to 42 days. CTFPA at 0.6 mg/mL was stable for up to […] when refrigerated in plastic bottles but by 42 days had decreased to approximately 81%.

O=C(O)C(F)(Cl)C(F)(F)F (stereo not drawn) [CTFPA, 2-Chloro-2,3,3,3-tetrafluoropropanoic acid]
Summary of observations (male SD rats): No mortality and no effect on absolute bodyweight gains or water consumption; clinical observations of low activity, decreased bodyweight and decreased feed consumption at high doses
Bodyweight and bodyweight gain (male and female SD rats): No changes
Clinical chemistry (male and female SD rats): Females: mild increases in albumin, A/G ratio and mild sporadic decreases in globulin and minimal increases in the total protein; males: minimal increases in calcium and from minimal to mild increases in BUN at all the dose levels. At 300 mg/kg-day, mild increases in ALPi
Clinical observations (male and female SD rats): None
Coagulation endpoints (male and female SD rats): No effects
Feed consumption (male and female SD rats): No effects
Gross lesions (male and female SD rats): None
Hematology (male and female SD rats): Mild increases in MPV in males at all the doses, not seen in females
Histopathology (male and female SD rats): From minimal to moderate diffuse hepatocellular hypertrophy seen in the livers of males at ≥30 mg/kg-day (5/5 in all the groups, with severity increasing with dose) and females at ≥100 mg/kg-day (5/5 with, severity increasing with dose)
Morbidity and mortality (male and female SD rats): None
Ophthalmology (male and female SD rats): No ocular lesions
Organ weight changes (male and female SD rats): Females: liver at >100 mg/kg-day; males: liver, dose-dependent pattern in all the dose groups
Concentration remaining in corn oil ([1]; 0.6 mg/mL, by 42 days, refrigerated): approximately 81%
Stable in corn oil for ([1]; 0.6 mg/mL, refrigerated in plastic bottles): up to 22 days
Stable in corn oil for ([1]; 40 mg/mL, refrigerated in plastic bottles): up to 42 days

CC(=O)C(F)(F)C(F)(F)C(F)(F)F [MHFPK, Methyl heptafluoropropyl ketone]
Summary of observations (male SD rats): No mortality. Clinical signs of low activity and minimal ataxia on study day 1 at 1000 mg/kg, with recovery on the following two observation days
Bodyweight and bodyweight gain (male and female SD rats): No changes
Clinical chemistry (male and female SD rats): Minimal increases in BUN and creatinine at 300 mg/kg-day for males; increased creatinine in females at ≥100 mg/kg-day
Clinical observations (male and female SD rats): None
Coagulation endpoints (male and female SD rats): No effects
Feed consumption (male and female SD rats): No effects
Gross lesions (male and female SD rats): None
Hematology (male and female SD rats): No effects considered as chemical related
Histopathology (male and female SD rats): No test-substance-related changes
Morbidity and mortality (male and female SD rats): None
Ophthalmology (male and female SD rats): No ocular lesions
Organ weight changes (male and female SD rats): No test-substance-related changes
Stable in corn oil for ([1]; room temperature, 5 and 100 mg/mL): up to 44 days

FC(F)(F)C(F)(F)C(F)(F)C(F)(F)CCI [PFHI, 1H,1H,2H,2H-Perfluorohexyl iodide]
Summary of observations (male SD rats): No mortality and no abnormal clinical observations, no effect on bodyweight; some bodyweight changes in high-dose group were considered as chemical-related
Bodyweight and bodyweight gain (male and female SD rats): No changes
Clinical chemistry (male and female SD rats): Mild increases in cholesterol levels in both sexes at 300 mg/kg-day and mild increases in glucose in males only at ≥100 mg/kg-day; from minimal to moderate increases in phosphorus in both sexes in all the dose groups
Clinical observations (male and female SD rats): None
Coagulation endpoints (male and female SD rats): No effects
Feed consumption (male and female SD rats): Females: dose-dependent increase, not correlated with bodyweight changes; Males: no effects
Gross lesions (male and female SD rats): None
Hematology (male and female SD rats): Decreased red cell mass at 300 mg/kg-day in females and all the dose levels in males; minimal increases in absolute reticulocyte concentrations and from minimal to mild increases in MPV in both sexes at all the dose levels
Histopathology (male and female SD rats): Mild liver hypertrophy in 4/5 males at 300 mg/kg-day and in 1/5 at 100 mg/kg-day; none in females
Morbidity and mortality (male and female SD rats): None
Ophthalmology (male and female SD rats): No ocular lesions
Organ weight changes (male and female SD rats): Increases in absolute and relative liver weights in males at 300 mg/kg-day and increases in liver weight/bodyweight ratio at ≥100 mg/kg-day; no changes in females
Stable in corn oil for ([1]; ambient temperatures, 1 and 80 mg/mL): up to 70 days

C=CC(=O)OCC(F)(F)C(F)(F)C(F)(F)C(F)(F)C(F)(F)C(F)(F)C(F)(F)C(F)F [PFNAC, 1H,1H,9H-Perfluorononyl acrylate]
Summary of observations (male SD rats): No mortality and no abnormal clinical observations, some lowering of bodyweight, bodyweight changes, and feed consumption in all the treated groups not reaching statistical significance
Bodyweight and bodyweight gain (male and female SD rats): No changes
Clinical chemistry (male and female SD rats): From mild to moderate decreases in mean cholesterol levels in males at all the dose levels and in females at 30 and 100 mg/kg-day, with from mild to moderate increases in triglycerides in both sexes at 100 mg/kg-day and in females at 30 mg/kg-day
Clinical observations (male and female SD rats): None
Coagulation endpoints (male and female SD rats): No effects
Feed consumption (male and female SD rats): No effects
Gross lesions (male and female SD rats): None
Hematology (male and female SD rats): No effects considered as chemical related
Histopathology (male and female SD rats): From minimal to moderate liver hypertrophy in males only in 2/5, 3/5, and 4/4 at doses of 10, 30, and 100 mg/kg-day, respectively
Morbidity and mortality (male and female SD rats): None
Ophthalmology (male and female SD rats): No ocular lesions
Organ weight changes (male and female SD rats): Dose-proportional increases in absolute and relative liver weights in all exposed males and females
Stable in corn oil for ([1]; ambient temperature, 0.2 and 10 mg/mL): 51 days
